Laboratory results: PMC8067754, “Active Transport of Hepatotoxic Pyrrolizidine Alkaloids in HepaRG Cells” (International Journal of Molecular Sciences, 2021)

What was measured:
HepaRG cells [1] = assay: PA and PANO content in cell culture medium of HepaRG cells upon pharmacological transporter inhibition (LC-MS/MS); assay type: in vitro ADME, human; conditions: HepaRG, 2.5 µM PA, 4, 8, 24 h; CsA 10 µM, Ko143 5 µM, MK-571 50 µM, Qu 100 µM, TEA 3 mM
Description: (§1) In the case of TEA, cells were pre-incubated 24 h prior to PA treatment. The inhibitors were applied anew at PA incubation.
In order to measure time-dependent depletion of PA and PANO content in cell culture medium, cells were seeded at a density of 0.2 × 10^6 cells per well in a 6-well plate and cultivated as described in Section 4.2. After four weeks of cultivation, cells were adapted to serum-free medium and medium substituted with insulin, transferrin, selenium (ITS) serum extender (Capricorn Scientific, Ebsdorfergrund, Germany) 48 h prior to PA incubation for optimal LC-MS/MS measurements. […] Samples were taken after 2 h, 4 h, 8 h and 24 h.
Briefly, chromatographic separation of PA/PANO analytes was achieved on a 50 × 2.1 mm Kinetex ™ 2.6 μm CoreShell EVO C18 100 Å column protected by a SecurityGuard ™ ULTRA EVO C 18 2.1 mm guard column (both Phenomenex, Aschaffenburg, Germany) at a flow rate of 0.4 mL/min on a Shimadzu high performance liquid chromatography (HPLC) apparatus (LC-20AB, SIL-20AC HT, CTO-20AC, CBM-20A, Duisburg, Germany) coupled to an API4000 triple quadrupole MS (Sciex, Darmstadt, Germany). The following MS parameters were used for measurements in positive electrospray ionisation (ESI+) mode: ionisation voltage 2500 V, nebuliser gas 50 psi, heating gas 50 psi, curtain gas 30 psi, temperature 600 °C, collision gas level 7. The substance specific parameters are summarized in Kaltner et al. 2019 [79].

HepaRG cells [2] = assay: Cell viability (MTT assay) of HepaRG cells with and without transporter inhibitors; assay type: cell-based, human; conditions: HepaRG
Description: as §1
(§2) To analyze the cytotoxic effects of PAs on HepaRG cells with non-inhibited and inhibited hepatic transporters, the cells were seeded at a density of 9000 cells per well in the inner 60 wells of a 96-well plate and cultivated as described in Section 4.2. After four weeks of cultivation, FBS concentration in the cell culture medium was reduced to 2% for 48 h prior incubation. Thereby, inhibitory effects of peptide growth factors from the FBS on xenobiotic-metabolizing enzymes were minimized. […] The cells were pre-incubated with pharmacological inhibitors as described in Section 4.3. […] Cell viability was analyzed via the MTT test. 10 µl MTT reagent (5 mg/mL MTT dissolved in phosphate-buffered saline, PBS) was added per well and incubated for 1 h at 37 °C. The supernatant was discarded, and the violet formazan crystals dissolved in 130 µL desorption solution (0.7% sodium dodecyl sulfate in propan-2-ol). After shaking for 20 min (under protection from light), absorbance was measured on a TecanM200Pro spectrometer (Tecan Group Ltd., Männedorf, Switzerland) at a wavelength of 570 nm, along with a reference wavelength of 630 nm.

[3] = as above; assay type: cell-based, human; conditions: human, HepaRG cells, HepaRG, no PA, inhibitor alone 24 h: CsA 10 µM, Ko143 5 µM, MK571 50 µM, Qu 100 µM, TEA 3 mM; read-out: Cell viability (MTT), percent of solvent control, Mean [%]
Description: as §1, §2

SLC22A1 = target: T1, SLC22A1 (Homo sapiens, UniProt O15245); assay: ASP+ (SLC22A1 substrate) uptake measurement in HepaRG cells; assay type: cell-based; conditions: for fluorescence [%], MW [%]: solv ctrl = 100; for reduction of ASP+ (SLC22A1 substrate) uptake: Qu 100 µM, TEA 3 mM, 1 µM ASP+
T1 construct: For measuring the uptake of ASP^+ in HepaRG cells incubated with PAs; endogenous in cells; host or cells: differentiated HepaRG cells (human hepatoma)
T1 sequence (O15245 1-554): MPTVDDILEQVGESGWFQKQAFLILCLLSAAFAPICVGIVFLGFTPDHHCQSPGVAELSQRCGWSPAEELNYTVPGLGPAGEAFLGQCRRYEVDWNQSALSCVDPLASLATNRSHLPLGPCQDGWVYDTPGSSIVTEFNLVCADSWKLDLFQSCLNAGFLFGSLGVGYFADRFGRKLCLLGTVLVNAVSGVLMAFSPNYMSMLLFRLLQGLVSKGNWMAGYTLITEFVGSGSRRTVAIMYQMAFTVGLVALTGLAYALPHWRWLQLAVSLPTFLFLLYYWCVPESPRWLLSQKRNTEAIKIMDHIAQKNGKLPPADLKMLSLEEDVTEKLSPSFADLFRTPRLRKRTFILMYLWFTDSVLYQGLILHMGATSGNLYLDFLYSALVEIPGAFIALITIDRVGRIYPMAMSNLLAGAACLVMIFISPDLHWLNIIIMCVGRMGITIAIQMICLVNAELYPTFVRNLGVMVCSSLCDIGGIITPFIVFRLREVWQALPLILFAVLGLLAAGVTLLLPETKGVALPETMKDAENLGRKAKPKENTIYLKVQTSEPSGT
Description: ASP^+ is an organic cationic mitochondrial dye that only fluoresces inside cells so that fluorescence measured in the cell culture medium can be neglected. […] In parallel, cells were incubated with Qu (100 µM) and TEA (3 mM) as mentioned in Section 4.3. After 24 h, cells were incubated with 1 µM ASP^+ in Hanks’ balanced salt solution (HBSS, Sigma-Aldrich, Taufkirchen, Germany) at 37 °C. Fluorescence was measured after 20 min at ASP^+-specific wavelength (λex = 475 nm and λem = 605 nm) on a TecanM200Pro spectrometer (Tecan Group Ltd., Männedorf, Switzerland) according to Ahlin et al., (2008).

Row | Compound | effect of inhibitor on retrorsine and senecionine uptake and PANO formation (HepaRG cells [1]) | viability at 24 h [3] [%] | fluorescence [%], MW [%] (SLC22A1; 100 µM) | reduction of ASP+ (SLC22A1 substrate) uptake (SLC22A1; HepaRG, 24 h) | other results
1 | COc1ccc2c3c([nH]c2c1)[C@H](CC(C)C)N1C(=O)[C@H](CCC(=O)OC(C)(C)C)NC(=O)[C@@H]1C3 [Ko143, reference compound] | did not alter retrorsine and senecionine uptake and PANO formation |  |  |  | effect of inhibitor on PA-mediated cytotoxicity (HepaRG cells [2]; 250 µM retrorsine or senecionine, MTT, 24 h, versus 250 µM PA only): did not alter the cytotoxic effects of retrorsine and senecionine; Cell viability (MTT), percent of solvent control, Mean [%] (HepaRG cells [2]; no PA, inhibitor alone 24 h: CsA 10 µM, Ko143 5 µM, MK571 50 µM, Qu 100 µM, TEA 3 mM): 98.3595%
2 | CN(C)C(=O)CCSC(SCCC(=O)O)c1cccc(/C=C/c2ccc3ccc(Cl)cc3n2)c1 (stereo not drawn) [MK-571, reference compound] | decelerated retrorsine and senecionine uptake and PANO excretion, but to a lesser extent than CsA | 106 |  |  | 
3 | C=C[C@H]1C[N@@]2CC[C@H]1C[C@@H]2[C@@H](O)c1ccnc2ccc(OC)cc12 [Qu, quinidine] | striking effect on both retrorsine and senecionine uptake at all time points | 87.2 | 82.7588 | 18% | 
4 | CC[N+](CC)(CC)CC [TEA, tetraethylammonium bromide] | significantly reduced retrorsine uptake only after 8 and 24 h and senecionine uptake only after 8 h | 84.5 |  | up to 64% | fluorescence [%], MW [%] (SLC22A1; 3mM): 36.1156%
5 | Triton X-100 [reference compound] |  |  |  |  | Cell viability (MTT), percent of solvent control (HepaRG cells [2]; 0.01% Triton X-100 positive control, listed as pos ctrl): 2.774%
6 | retrorsine |  |  | 25.133 |  | fluorescence [%], MW [%] (SLC22A1; 1 µM): 89.2606%; fluorescence [%], MW [%] (SLC22A1; 10 µM): 46.6068%; fluorescence [%], MW [%] (SLC22A1; 50 µM): 25.7608%; fluorescence [%], MW [%] (SLC22A1; 250 µM): 21.5057%; interaction with SLC22A1 (SLC22A1; HepaRG): both inhibitors and substrates; minimum concentration inhibiting uptake of the SLC22A1-specific substrate ASP+ (SLC22A1; HepaRG, 24 h): 10 µM
